In patent publication US20250152608A1, “CONTRACEPTIVE METHODS WITH IMPROVED PEARL INDEX” (ESTETRA SRL, priority 2022, published 2025):

Assay: Solubility description
Assay type: physicochemical

Solubility (acetone) | Solubility (ethyl acetate and acetonitrile) | Solubility (methanol, ethanol) | Solubility (water and aqueous solutions) | Solubility (water) | SMILES
sparingly soluble | slightly soluble | soluble | poorly soluble | – | C[C@]12CC[C@@H]3c4ccc(O)cc4CC[C@H]3[C@@H]1[C@@H](O)[C@@H](O)C2O (stereo in doubt) [Estetrol monohydrate, estra-1,3,5(10)-triene-3,15α,16α,17α-tetrol monohydrate]
– | – | – | – | slight solubility | C[C@]12CCC(=O)C=C1[C@@H]1C[C@@H]1[C@H]1[C@@H]3[C@@H]4C[C@@H]4[C@@]4(CCC(=O)O4)[C@@]3(C)CC[C@@H]12 [Drospirenone]
